These results are taken from patent US7910621B2, “Small molecule antagonists of XIAP family proteins” (The Regents of the University of Michigan, priority 2004, dated 2011).

Assay [1] deals with Jurkat-XIAP cells. Kind of assay: Cell growth assay, Jurkat-XIAP. The class given is cell-based. As to conditions: essentially identical to that in Jurkat-Vec cells. On the procedure: FIG. 9 presents inhibition of cell growth by embelin in Jurkat-Vec and Jurkat-XIAP cells. The cell growth results are expressed as the percent of control and calculated from the percent of absorbance of treated wells versus that of vehicle control.
Human prostate cancer cell lines (PC-3, LNCap, CL-1, DU-145), and normal human fibroblast cell line WI-38 were obtained from the American Type Culture Collection (ATCC), were grown and maintained in Dulbecco's modified Eagle's medium (DMEM) containing 10% FBS (Invitrogen Corporation). Normal human prostate epithelial cells (PrEC) were obtained from Clonetics (Cambrex Inc., MD) and maintained in the special medium provided by the company. Jurkat T-cells stably transfected with either empty vector (Jurkat-Vec), or XIAP (Jurkat-XIAP) and were cultured in RPMI 1640 containing 10% fetal calf serum and 1 ug/ml puromycin. Cell cultures were maintained in a humidified incubator at 37° C. and 5% CO2.
Cell growth was determined by the MTT-based assay using Cell Proliferation Reagent WST-1 (Roche) according to the manufacturer's instruction. The WST-1 assay is a colorimetric assay that measures the reduction of WST-1 by mitochondrial succinate dehydrogenase, which belongs to the respiratory chain of the mitochondria and is active only in viable cells. The WST-1 enters the cells and passes into the mitochondria, where it is reduced to a soluble, colored formazan product. The amount of formazan dye formed directly correlates to the number of metabolically active cells in the culture. Cells (5000 cells/well) were grown in medium with 10% FBS, and various concentrations of drugs were added to the cells in triplicate. […] Absorbance was measured with a plate reader at […] with correction at […]. The results are expressed as the percent of absorbance of treated wells versus that of vehicle control.

The test system of assay [2] is PC-3 prostate cancer cells. As to the kind of experiment: Annexin V-FITC apoptosis assay by flow cytometry, PC-3. The class given is cell-based, human. As to conditions: 48 hours. On the procedure: FIG. 6 presents induction of apoptosis by embelin in PC-3 prostate cancer cells. 1×10^6 PC-3 cells per well in 6-well culture plates were treated with embelin for 48 hours, stained with Annexin V-FITC and propidium iodide for apoptosis by flow cytometry. The results are shown as percent of Annexin V-FITC positive apoptotic cells (n=3).
(§1) PC-3 cells, 1×10^6 cells per well in 6-well culture plates, were treated in triplicate with various concentrations of embelin for 24 or 48 hours, then trypsinized and washed with PBS. For Jurkat cells, 1×10^6 Jurkat-XIAP or Jurkat-Vec cells per well in 6-well culture plates, were treated with etoposide, embelin, or both for 15 hours. For flow cytometry apoptosis assay, cells were stained with Annexin V-FITC and propidium iodide using the Annexin-V-FLUOS Kit (Roche) according to the manufacturer's instruction. The fluorescence of Annexin V-FITC and propidium iodide of individual cells was analyzed by FACScan. The results are shown as percent of Annexin V-FITC positive apoptotic cells.
A general note: Flow cytometry measures light scatter and fluorescence of single cells or particles in a stream.

The test system of assay [3] is caspase-9 in normal PrEC cells. As to the kind of experiment: Activation of caspase-9 assay, PrEC. In kind it is cell-based, human. Conditions: compared to vehicle treated control cells. The procedure: FIGS. 7A and 7B show the activation of caspase-9 by embelin in PC-3 prostate cancer cells and its selectivity in normal prostate epithelial cells. 1×10^6 PC-3 or PrEC cells per well in 6-well culture plates were treated with embelin for 48 hours. An additional control was prepared by adding the pan-caspase inhibitor Z-VAD-FMK (2 uM final) 5 min before adding embelin, to inhibit caspase activation. The cells were collected and stained of active caspase-9 by CaspGLOW Red Active Caspase-9 Staining Kit, and analyzed by flow cytometry in PI channel.
1×10^6 PC-3 cells per well in 6-well culture plates, were treated with various concentrations of embelin, or the same amount of solvent DMSO as vehicle control, for up to 48 hr. An additional control was prepared by adding the pan-caspase inhibitor Z-VAD-FMK (1 uM final) 5 min before adding embelin, to inhibit caspase activation. The cells were collected for staining of active caspase-9 by CaspGLOW Red Active Caspase-9 Staining Kit (BioVision, Inc., Mountain View, Calif.) according to the manufacturer's instructions, with modification. […] The cells were resuspended in 0.3 ml Binding Buffer and analyzed by flow cytometry, using PI channel for active caspase-9 and FITC channel for apoptosis.

The test system of assay [4] is Jurkat-XIAP cells. Kind of assay: Annexin V-FITC apoptosis assay, Jurkat-XIAP. The class given is cell-based. Conditions: combination with etoposide, 15 hours. The procedure: FIGS. 8A and 8B present (A): Dose-dependent induction of apoptosis by etoposide in Jurkat cells transfected with vector control (Jurkat-Vec) and stably transfected with XIAP (Jurkat-XIAP cells); and (B): Induction of apoptosis by etoposide and embelin alone and in combination in Jurkat-Vec and Jurkat-XIAP cells. 1×10^6 Jurkat-XIAP or Jurkat-Vec cells per well in 6-well culture plates were treated with etoposide and embelin alone, or in combination for 15 hours, then stained with Annexin V-FITC and propidium iodide for apoptosis by flow cytometry. The results are shown as percent of Annexin V-FITC positive apoptotic cells.
as §1

In assay [5] the target is XIAP BIR3 protein of human XIAP (residues 241-356) (Homo sapiens, UniProt P98170). Conditions: read-out: IC50 (displacement of SM7F from XIAP BIR3); 10 nM SM7F, 0.060 μM XIAP BIR3; three independent experiments in triplicate.
Assay [6] has as its system methylcholanthrene-induced fibrosarcoma. As to conditions: methylcholanthrene-induced fibrosarcoma in albino rats (Chitra et al. 1994); cited from earlier work.

Each structure is given as a SMILES string.

XIAP BIR3 protein of human XIAP (residues 241-356), sequence (P98170 241-356): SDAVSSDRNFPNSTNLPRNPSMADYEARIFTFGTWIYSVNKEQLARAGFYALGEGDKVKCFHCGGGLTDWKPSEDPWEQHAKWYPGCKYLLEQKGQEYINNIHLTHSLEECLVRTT

Consider `CCCCCCCCCCCC1=C(O)C(=O)C=C(O)C1=O` [embelin], for which, in the assay with Jurkat-XIAP cells [1], the “activity in cell growth assay” value is “weak activity”. For the same compound, the “PC-3 cells that underwent apoptosis (Annexin V-FITC positive)” value worked out at 30% in assay [2] (25 μM) and 75% in assay [2] (50 μM). The “increase in apoptosis as compared to control cells” value in assay [2] (25 μM) is “approximately 3 fold”; in assay [2] (50 μM), approximately 9 fold. In addition, the “activation of caspase-9 in normal PrEC” value in assay [3] was “no significant effect”; in assay [3] (listed as Embelin), “minimal effects”. In addition, in the assay on Jurkat-XIAP cells [4], the “percentage of apoptotic cells in combination, compared to either drug alone” value is “significantly increased”. The IC50 (usually the point on the concentration scale where inhibition reaches its midpoint) in assay [5] stood at 4.1 ± 1.1 µM. Further, the antitumor activity result in assay [6] is on record as “significant antitumor activity”.
